Marks after values point to notes of the source that are not given here.
What was measured:
[1] = system: MV4-11 xenografts; assay: In vivo efficacy in MV4-11 subcutaneous xenograft model
Procedure: Experimental female NOD-SCID mice, SPF grade, 4 to 5 weeks, were purchased from Beijing Vital River Laboratory Animal Technology Co., Ltd. The mice were intraperitoneally injected with cyclophosphamide at a dose of 100 mg/kg one day before cell inoculation. The human acute monocytic leukemia cell line MV4-11 (1×10^7/0.1 ml/mouse) was subcutaneously inoculated into forelimb axilla of mice to establish a subcutaneous xenograft model. When the tumor volumes reached about 110 mm^3 (10 days after inoculation), the mice were equally grouped according to the tumor volume, with 5 mice in each group, i.e., vehicle group (2% DMSO+98% (0.2 g/mL) hydroxypropyl-β-cyclodextrin) and test drug groups. For the test drug groups, the dose of administration was 100 mg/kg, the dosing volume was 10 mL/kg, the dosing frequency was BID, the tumor diameters were measured twice per week, and the data was recorded. The mice were administered for 11 consecutive days. When the experiment ended, the tumors were dissected and weighed.

[2] = biological target: PRMT5 (Homo sapiens (Human), UniProt O14744); assay: radiometric assay for PRMT5 based on FlashPlate technology; type: biochemical; conditions: PRMT5 5 nM, [3H]-SAM, 60 min at 25° C.; read-out: Enzymology (IC50)
Procedure: The radiometric assay for PRMT5 based on FlashPlate technology was adopted to determine IC50 of the test compound.
After dissolved in dimethyl sulfoxide respectively, the test compounds were added into an Echo Qualified 384-well plate and diluted to the desired concentrations. The diluted test compounds were transferred from the Echo Qualified 384-well plate to a 384-well reaction plate using an Echo 550 instrument, and dimethyl sulfoxide was transferred into both the control and blank wells. PRMT5 was added to 1×reaction buffer (including 10 mM Tris-HCl; pH 8.0; 0.01% Tween-20; 1 mM DTT) to form a 1.67×enzyme solution (at an enzyme concentration of 5 nM). A polypeptide substrate and [3H]-SAM were added to 1× reaction buffer to form a 2.5× substrate solution (the terminal concentrations of the substrates were 100 nM and 250 nM, respectively). At a volume of 15 μL/well, the 1.67× enzyme solution was added into wells of the 384-well reaction plate. In case of the blank wells, the enzyme solution was replaced with 15 μL of the 1× reaction buffer. The reaction plate was centrifuged at 1000 rpm for 1 min, and incubated at room temperature for 15 min. To each well of the 384-well reaction plate, 10 μL of the 2.5× substrate solution was added, centrifuged at 1000 rpm for 1 min, and reacted at 25° C. for 60 min. To each well of the 384-well reaction plate, 5 μL of reaction stop solution (which was […] cold SAM solution) was added to terminate the reaction. From each well of the test plate, 25 μL was measured and transferred to Flashplate and left at room temperature for 1 h. Thereafter, the Flashplate was washed with 0.1% Tween-20 solution three times. Readings were taken with MicroBeta 2. The data was converted into the inhibition rate data. Inhibition rate=(conversion ratecontrol well−conversion ratecompound well)/(conversion ratecontrol well−conversion rateblank well)×100%. The IC50curves were fitted using XLFit5.4.0.8. The fitting equation was as follows:Y=Bottom+(Top-Bottom)/(1+(IC50/X)^HillSlope).

[3] = in vivo; conditions: male, SD, rat, po, 25 mg/kg
Procedure: SD rats (male, 180 g to 200 g, Beijing Vital River Laboratory Animal Technology Co., Ltd.) were administered with the test compounds (solvent: 2% DMSO+98% (0.2 g/mL) hydroxypropyl-β-cyclodextrin, dosing volume: 5 mL/kg) by gavage. Blood was collected from the orbits of the rats at different points in time (0.25, 0.5, 1, 2, 4, 8, 24 h) after administration. The collected whole blood was anticoagulated with heparin sodium and centrifuged at 3000 g to obtain rat plasma samples, and methanol was added thereto to precipitate proteins. The drug concentration in rat plasma after administration was determined by HIPLC-MS/MS method. A drug concentration-time curve was plotted and the pharmacokinetic parameters were calculated. Pharmacokinetic behaviors of the compounds after administration in rats were described by means of the parameter estimation of non-compartmental model based on statistical moment theory.

[4] = system: human acute monocytic leukemia cell line MV4-11; assay: MV4-11 MTT cell growth inhibition; type: cell-based; conditions: 144 h, MV4-11 cells, MTT on Day 6
Procedure: The complete medium required for the culture of human acute monocytic leukemia cell line MV4-11 (Shanghai Cell Bank) for experiment was IMDM (Cat NO. 12440-053, gibco) supplemented with 10% FBS (Cat NO. SA311.02, cellmax). The cells were cultured in an incubator at 37° C. with 5% CO2. The experiment reagents included dimethyl sulfoxide (Tianjin Kemiou Chemical Reagent Co., Ltd.) and MTT (THIAZOLYL BLUE TETRAZOLIUM BROMIDE, CAS. NO. 298-93-1, VWR). The control compound GSK3326595 for experiment was homemade or commercially available. The test compound was encapsulated and stored at 4° C.
Dimethyl sulfoxide was used as a vehicle to fully dissolve the test compound, thereby formulating a stock solution at a concentration of 5×10^−2 mol/L. The stock solution was stored at −20° C. With the complete medium as diluent, the test compound was subjected to gradient dilution to afford dilutions at different concentrations for standby application. In a 96-well culture plate, the suspension of the human acute monocytic leukemia cell line MV4-11 in the complete medium, at a volume of 100 μL/well (2×10^3 cells/well), was added. Afterwards, the dilutions at different concentrations of the corresponding test compounds (100 μL/well) were added, respectively. Each of the test compounds was provided with 8 concentration gradients and three replicates were used for each concentration. The plates were incubated in an incubator at 37° C. with 5% CO2. On Day 6, the plate was treated with MTT (20 μL/well) and incubated for 4 h in an incubator at 37° C. with 5% CO2. The supernatant was discarded. Dimethyl sulfoxide (150 μL/well) was added and mixed well by shaking. The OD value at 550 nm was measured with a microplate reader. Wells containing only cell suspensions without the test compounds were control wells, and wells containing only complete media were blank wells. The cell growth inhibition rate was calculated according to the following equation: Inhibition rate=(OD valuecontrol well−OD valuesample well)/(OD valuecontrol well−OD valueblank well)×100%. According to the inhibition rate at each concentration, the half maximal inhibitory concentration IC50 value was calculated using the SPSS software. 2. Enzymatic Experiment

Chain of PRMT5 (O14744 whole entry): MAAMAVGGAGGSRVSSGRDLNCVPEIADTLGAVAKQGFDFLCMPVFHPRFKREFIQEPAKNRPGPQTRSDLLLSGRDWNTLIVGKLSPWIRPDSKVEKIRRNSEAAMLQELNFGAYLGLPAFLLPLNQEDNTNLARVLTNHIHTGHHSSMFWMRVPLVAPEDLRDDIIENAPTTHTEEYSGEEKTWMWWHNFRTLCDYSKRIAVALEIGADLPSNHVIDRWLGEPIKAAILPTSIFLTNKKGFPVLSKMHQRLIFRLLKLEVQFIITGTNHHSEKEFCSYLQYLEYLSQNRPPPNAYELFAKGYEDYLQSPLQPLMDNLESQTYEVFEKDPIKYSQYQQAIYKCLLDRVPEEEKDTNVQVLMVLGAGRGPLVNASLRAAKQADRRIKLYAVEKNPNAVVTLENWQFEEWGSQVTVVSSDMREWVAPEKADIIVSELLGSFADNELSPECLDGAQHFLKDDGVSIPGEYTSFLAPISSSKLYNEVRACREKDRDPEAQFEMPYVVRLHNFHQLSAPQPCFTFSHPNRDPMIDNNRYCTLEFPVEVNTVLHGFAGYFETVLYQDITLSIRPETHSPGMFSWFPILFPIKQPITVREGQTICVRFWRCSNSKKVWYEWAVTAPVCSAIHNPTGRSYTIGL
Chain of PRMT5 (Q9BQA1 whole entry partner): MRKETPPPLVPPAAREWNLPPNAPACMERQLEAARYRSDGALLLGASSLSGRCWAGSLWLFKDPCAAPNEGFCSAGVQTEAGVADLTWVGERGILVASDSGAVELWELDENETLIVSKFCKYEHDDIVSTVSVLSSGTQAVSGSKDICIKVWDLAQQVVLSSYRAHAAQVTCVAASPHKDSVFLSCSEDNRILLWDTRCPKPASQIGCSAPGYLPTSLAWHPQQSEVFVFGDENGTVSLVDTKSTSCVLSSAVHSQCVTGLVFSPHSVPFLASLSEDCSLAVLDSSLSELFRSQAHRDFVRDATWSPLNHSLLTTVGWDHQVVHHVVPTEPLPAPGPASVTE

IC50 [2]: 16 nM
AUC(0-t) [3]: 840 ng·h/mL
Cmax [3]: 516 ng/mL
Tmax [3]: 50 min
IC50 [4]: 1.53 nM
SMILES: CON=C(C)C(=O)N1CCC2(CC1)CC(Nc1cc(C(=O)NC[C@H](O)CN3CCc4ccccc4C3)ncn1)C2 [PR-13, (S)-N-(3-(3,4-dihydroisoquinolin-2(1H)-yl)-2-hydroxypropyl)-6-((7-(2-(methoxyimino)propanoyl)-7-azaspiro[3.5]nonan-2-yl)amino)pyrimidine-4-carboxamide]
d9 Tumor Volume (mm^3) ([1]; 100 mg/kg BID, 9th day after administration): 69.7 ± 22.9***# mm^3
Tumor Weight ([1]; 100 mg/kg BID, 11 days, tumors dissected at end): 0.0679 ± 0.0225 g
Tumor weight inhibition rate (%) ([1]; 100 mg/kg BID, 11 days, versus vehicle group): 90.6%
d0 Tumor Volume (mm^3) ([1]; d0, before grouping for administration (baseline)): 165.4 ± 30.2 mm^3
RTV (d9) ([1]; relative tumor volume = d9/d0 tumor volume, 100 mg/kg BID): 0.4 ± 0.1
